Values after ≈ are worked out from the molar mass of the structure shown.
Assays:
Experiment in all cases: MIC, in vitro antibacterial activity (standard strains)
Format in all cases: cell-based
[1] = test system: Bacillus subtilis PCI 219; settings: PCI219; Bacillus subtilis PCI 219, 10^6 cells/ml, Gram +
[2] = test system: Staphylococcus aureus 209 P; settings: 10^6 cells/ml, Gram +
[3] = test system: S. aureus IID 670 (Terajima); settings: Staphylococcus aureus, IID670, 10^6 cells/ml, Gram +
S. epidermidis IID 866 = settings: Staphylococcus epidermidis, IID866; S. epidermidis IID 866, 10^6 cells/ml, Gram +
[4] = test system: Streptococcus pyogenes (S-8); settings: Streptococcus pyogenes (S-8), 10^6 cells/ml, Gram +; read-out: MIC
S. pyogenes IID 692 = settings: Streptococcus pyogenes, IID692; S. pyogenes IID 692, 10^6 cells/ml, Gram +
S. pneumoniae IID 552 = settings: Streptococcus pneumoniae, IID552; S. pneumoniae IID 552, 10^6 cells/ml, Gram +; read-out: MIC
E. faecalis IID 682 = settings: Enterococcus faecalis, IID682; E. faecalis IID 682, 10^6 cells/ml, Gram +
[5] = test system: Escherichia coli NIHJ JC-2; settings: NIHJJC2; Escherichia coli NIHJ JC-2, 10^6 cells/ml, Gram -; read-out: MIC
E. coli ATCC 10536 = settings: Escherichia coli, ATCC10536; E. coli ATCC 10536, 10^6 cells/ml, Gram -; read-out: MIC
[6] = test system: Proteus vulgaris IFO 3167; settings: IFO3167; Proteus vulgaris IFO 3167, 10^6 cells/ml, Gram -; read-out: MIC
P. mirabilis IID 994 = settings: Proteus mirabilis, IID994; P. mirabilis IID 994, 10^6 cells/ml, Gram -; read-out: MIC
P. morganii IID 602 = settings: Morganella morganii, IID602; P. morganii IID 602, 10^6 cells/ml, Gram -
[7] = test system: Klebsiella pneumoniae KY(GN)6445; settings: Klebsiella pneumoniae KY(GN)6445, 10^6 cells/ml, Gram -; read-out: MIC
K. pneumoniae 1-220S = settings: Klebsiella pneumoniae, 1220S; K. pneumoniae 1-220S, 10^6 cells/ml, Gram -; read-out: MIC
[8] = test system: Enterobacter cloacae IID 977; settings: IID977; Enterobacter cloacae IID 977, 10^6 cells/ml, Gram -
[9] = test system: Citrobacter freundii IID 976; settings: IID976; Citrobacter freundii IID 976, 10^6 cells/ml, Gram -; read-out: MIC
[10] = test system: Serratia marcescens IID 618; settings: IID618; Serratia marcescens IID 618, 10^6 cells/ml, Gram -
Shigella sonnei IID 969 = settings: IID969; Shigella sonnei IID 969, 10^6 cells/ml, Gram -
Description: Minimal inhibitory concentrations (MICs) were determined in accordance with the method recommended by Japan Society of Chemotherapy.

[11] = test system: Salmonella enteritidis IID 604; settings: Salmonella enterica; Salmonella enteritidis IID 604, 10^6 cells/ml, Gram -; read-out: MIC
P. aeruginosa IFO 12689 = settings: Pseudomonas aeruginosa, IFO12689; P. aeruginosa IFO 12689, 10^6 cells/ml, Gram -
[12] = test system: Yersinia enterocolitica IID 981; settings: IID981; Yersinia enterocolitica IID 981, 10^6 cells/ml, Gram -
[13] = test system: Acinetobacter anitratus IID 876; settings: Acinetobacter calcoaceticus, IID876; Acinetobacter anitratus IID 876, 10^6 cells/ml, Gram -
[14] = test system: Alcaligenes faecalis 0104002; settings: Alcaligenes faecalis 0104002, 10^6 cells/ml, Gram -; read-out: MIC
[15] = test system: Bacteroides fragilis GM 7000; settings: GM7000; Bacteroides fragilis GM 7000, 10^6 cells/ml, Gram -
B. fragilis 0558 = settings: Bacteroides fragilis; B. fragilis 0558, 10^6 cells/ml, Gram -
B. fragilis 25285 = settings: Bacteroides fragilis; B. fragilis 25285, 10^6 cells/ml, Gram -
B. fragilis 8503 = settings: Bacteroides fragilis; B. fragilis 8503, 10^6 cells/ml, Gram -
[16] = test system: B. thetaiotaomicron (0661); settings: Bacteroides thetaiotaomicron; B. thetaiotaomicron (0661), 10^6 cells/ml, Gram -; read-out: MIC
F. varium KYA 8501 = settings: Fusobacterium varium, KYA8501; F. varium KYA 8501, 10^6 cells/ml, Gram -; read-out: MIC
[17] = test system: Clostridium difficile I-E; settings: Clostridioides difficile, 10^6 cells/ml, Gram +

## CCNCC1CCN(c2c(F)cc3c(=O)c(C(=O)O)cn(CC)c3c2F)C1 (stereo not shown) [CI-934, 1-Ethyl-7-(3-ethylaminomethyl-1-pyrrolidinyl)-6,8-difluoro-1,4-dihydro-4-oxo-3-quinolinecarboxylic acid]
[1]
  MIC: 0.05 µg/mL
[2]
  MIC: 0.1 µg/mL
[3]
  MIC: 0.1 µg/mL
S. epidermidis IID 866
  MIC: 0.1 µg/mL
[4]
  MIC: 0.2 µg/mL (≈ 0.527 µM)
S. pyogenes IID 692
  MIC: 0.39 µg/mL
S. pneumoniae IID 552
  MIC: 0.39 µg/mL (≈ 1.03 µM)
E. faecalis IID 682
  MIC: 0.39 µg/mL
[5]
  MIC: 0.1 µg/mL (≈ 0.264 µM)
E. coli ATCC 10536
  MIC: 0.1 µg/mL (≈ 0.264 µM)
[6]
  MIC: 0.05 µg/mL (≈ 0.132 µM)
P. mirabilis IID 994
  MIC: 0.2 µg/mL (≈ 0.527 µM)
P. morganii IID 602
  MIC: 0.39 µg/mL (≈ 1.03 µM)
[7]
  MIC: 0.2 µg/mL (≈ 0.527 µM)
K. pneumoniae 1-220S
  MIC: 0.39 µg/mL (≈ 1.03 µM)
[8]
  MIC: 0.78 µg/mL (≈ 2.06 µM)
[9]
  MIC: 0.2 µg/mL (≈ 0.527 µM)
[10]
  MIC: 0.39 µg/mL (≈ 1.03 µM)
Shigella sonnei IID 969
  MIC: 0.1 µg/mL (≈ 0.264 µM)
[11]
  MIC: 0.39 µg/mL (≈ 1.03 µM)
P. aeruginosa IFO 12689
  MIC: 6.25 µg/mL (≈ 16.5 µM)
[12]
  MIC: 0.39 µg/mL (≈ 1.03 µM)
[13]
  MIC: 0.39 µg/mL (≈ 1.03 µM)
[14]
  MIC: 6.25 µg/mL (≈ 16.5 µM)
[15]
  MIC: 6.25 µg/mL (≈ 16.5 µM)
B. fragilis 0558
  MIC: 3.13 µg/mL (≈ 8.25 µM)
B. fragilis 25285
  MIC: 3.13 µg/mL (≈ 8.25 µM)
B. fragilis 8503
  MIC: 6.25 µg/mL (≈ 16.5 µM)
[16]
  MIC: 25 µg/mL (≈ 65.9 µM)
F. varium KYA 8501
  MIC: 6.25 µg/mL (≈ 16.5 µM)
[17]
  MIC: 3.13 µg/mL

Source: patent EP0195316A1, “Quinolonecarboxylic acid derivatives” (KYORIN PHARMACEUTICAL CO., LTD., priority 1985, dated 1986)
